Reference: patent US8765728B2, “[1,5]-diazocin derivatives” (MelliTech, priority 2009, dated 2014)

tested on: Min6 cell; assay: Insulin secretion response of beta cell line to formula I compounds (insulin ELISA); type: cell-based; conditions: rank according to % increase versus control at most effective dose
Procedure: The secretory responses of beta cell lines to glucose were tested as described in Merglen et al. Endocrinology, (2004) 145(2):667-78.
Briefly, after incubation with compounds from formula I or control vehicle, cells were maintained for 2 hours in glucose-free culture medium. The cells were then washed twice and preincubated for 30 minutes at 37° C. in glucose-free Krebs-Ringer bicarbonate HEPES buffer (KRBH: 135 mM NaCl, 3.6 mM KCl, 5 mM NaHCO3, 0.5 mM NaH2PO4, 0.5 mM MgCl2, 1.5 mM CaCl2, and 10 mM HEPES, pH 7.4). BSA (0.1%) was added as an insulin carrier. Cells were subsequently washed with glucose-free KRBH and then incubated for 30 minutes at 37° C. in KRBH containing different concentrations of glucose. The reaction was stopped by placing the plates on ice; supernatants were collected to determine insulin secretion and cells were used for intracellular insulin content following acid-ethanol extraction. Insulin was measured by ELISA (Linco) according to the manufacturer's instructions.

SMILES | Insulin secretion (Min6 cell) Range 1 to 5
COc1cccc(C(O)CN2CCC(=O)N(C3CC3)Cc3cc(F)ccc32)c1 (stereo not shown) [Compound 58, 5-cyclopropyl-8-fluoro-1-(2-hydroxy-2-(3-methoxyphenyl)ethyl)-2,3,5,6-tetrahydrobenzo[b][1,5]diazocin-4(1H)-one] | 2 (2: 110-120% of control)
COc1ccc(C(O)CN2CCC(=O)N(C3CC3)Cc3cc(F)ccc32)cc1 (stereo not shown) [Compound 59, 5-cyclopropyl-8-fluoro-1-(2-hydroxy-2-(4-methoxyphenyl)ethyl)-2,3,5,6-tetrahydrobenzo[b][1,5]diazocin-4(1H)-one] | 2 (2: 110-120% of control)
O=C1CCN(CC(O)c2ccc3c(c2)OCCO3)c2ccc(F)cc2CN1C1CC1 (stereo not shown) [Compound 60, 5-cyclopropyl-1-(2-(2,3-dihydrobenzo[b][1,4]dioxin-6-yl)-2-hydroxyethyl)-8-fluoro-2,3,5,6-tetrahydrobenzo[b][1,5]diazocin-4(1H)-one] | 2 (2: 110-120% of control)
O=C1CCN(CC(O)c2ccccc2)c2ccc(F)cc2CN1C1CC1 (stereo not shown) [Compound 61, 5-cyclopropyl-8-fluoro-1-(2-hydroxy-2-phenylethyl)-2,3,5,6-tetrahydrobenzo[b][1,5]diazocin-4(1H)-one] | 3 (3: 120-140% of control)
O=C1CCNc2cnccc2CN1C1CC1 [Compound 62, 5-cyclopropyl-2,3,5,6-tetrahydropyrido[3,4-b][1,5]diazocin-4(1H)-one] | 2 (2: 110-120% of control)
C=CCOc1c(OC)ccc2c1CN(C1CCCC1)C(=O)CCN2CC(=O)O [Compound 63, 2-(7-(allyloxy)-5-cyclopentyl-8-methoxy-4-oxo-3,4,5,6-tetrahydrobenzo[b][1,5]diazocin-1(2H)-yl)acetic acid] | 1 (1: 90-110% of control)
O=C1CCN(CC(O)c2ccc(N3CCCC3)cc2)c2ccc(F)cc2CN1C1CC1 (stereo not shown) [Compound 64, 5-cyclopropyl-8-fluoro-1-(2-hydroxy-2-(4-(pyrrolidin-1-yl)phenyl)ethyl)-2,3,5,6-tetrahydrobenzo[b][1,5]diazocin-4(1H)-one] | 5 (5: >170% of control)
O=C1CCN(CC(O)COc2ccc(F)cc2)c2ccc(F)cc2CN1C1CC1 (stereo not shown) [Compound 65, 5-cyclopropyl-8-fluoro-1-(3-(4-fluorophenoxy)-2-hydroxypropyl)-2,3,5,6-tetrahydrobenzo[b][1,5]diazocin-4(1H)-one] | 3 (3: 120-140% of control)
O=C1CCN(C[C@H](O)COCc2ccccc2)c2ccc(F)cc2CN1C1CC1 [Compound 66, (S)-1-(3-(benzyloxy)-2-hydroxypropyl)-5-cyclopropyl-8-fluoro-2,3,5,6-tetrahydrobenzo[b][1,5]diazocin-4(1H)-one] | 1 (1: 90-110% of control)
COc1ccc2c(c1)CN(C1CC1)C(=O)CCN2C[C@H](O)COCc1ccccc1 [Compound 67, (S)-1-(3-(benzyloxy)-2-hydroxypropyl)-5-cyclopropyl-8-methoxy-2,3,5,6-tetrahydrobenzo[b][1,5]diazocin-4(1H)-one] | 3 (3: 120-140% of control)
COc1ccc2c(c1)CN(C1CC1)C(=O)CCN2C[C@@H](O)CO [Compound 68, (R)-5-cyclopropyl-1-(2,3-dihydroxypropyl)-8-methoxy-2,3,5,6-tetrahydrobenzo[b][1,5]diazocin-4(1H)-one] | 3 (3: 120-140% of control)
O=C(c1ccc(F)cc1)N1CCC(=O)N(C2CC2)Cc2cc(F)ccc21 [Compound 69, 5-cyclopropyl-8-fluoro-1-(4-fluorobenzoyl)-2,3,5,6-tetrahydrobenzo[b][1,5]diazocin-4(1H)-one] | 1 (1: 90-110% of control)
O=C(c1cccnc1)N1CCC(=O)N(C2CC2)Cc2cc(F)ccc21 [Compound 70, 5-cyclopropyl-8-fluoro-1-nicotinoyl-2,3,5,6-tetrahydrobenzo[b][1,5]diazocin-4(1H)-one] | 1 (1: 90-110% of control)
O=C(Cc1ccc(F)cc1)N1CCC(=O)N(C2CC2)Cc2cc(F)ccc21 [Compound 71, 5-cyclopropyl-8-fluoro-1-(2-(4-fluorophenyl)acetyl)-2,3,5,6-tetrahydrobenzo[b][1,5]diazocin-4(1H)-one] | 4 (4: 140-170% of control)
O=C1CCN(Cc2ccccc2)c2ccc(F)cc2CN1C1CC1 [Compound 72, 1-benzyl-5-cyclopropyl-8-fluoro-2,3,5,6-tetrahydrobenzo[b][1,5]diazocin-4(1H)-one] | 3 (3: 120-140% of control)
O=C1CCN(CCc2ccccc2)c2ccc(F)cc2CN1C1CC1 [Compound 73, 5-cyclopropyl-8-fluoro-1-phenethyl-2,3,5,6-tetrahydrobenzo[b][1,5]diazocin-4(1H)-one] | 4 (4: 140-170% of control)

SMILES | Insulin secretion (Min6 cell) Range 1 to 5
O=C1CCN(CCCc2ccccc2)c2ccc(F)cc2CN1C1CC1 [Compound 74, 5-cyclopropyl-8-fluoro-1-(3-phenylpropyl)-2,3,5,6-tetrahydrobenzo[b][1,5]diazocin-4(1H)-one] | 4 (4: 140-170% of control)
O=C(c1ccc(F)cc1)N1CCC(=O)N(C2CC2)Cc2cccnc21 [Compound 75, 5-cyclopropyl-1-(4-fluorobenzoyl)-2,3,5,6-tetrahydropyrido[2,3-b][1,5]diazocin-4(1H)-one] | 4 (4: 140-170% of control)
O=C(Cc1ccc(F)cc1)N1CCC(=O)N(C2CC2)Cc2cccnc21 [Compound 76, 5-cyclopropyl-1-(2-(4-fluorophenyl)acetyl)-2,3,5,6-tetrahydropyrido[2,3-b][1,5]diazocin-4(1H)-one] | 5 (5: >170% of control)
O=C(c1cccnc1)N1CCC(=O)N(C2CC2)Cc2cccnc21 [Compound 77, 5-cyclopropyl-1-nicotinoyl-2,3,5,6-tetrahydropyrido[2,3-b][1,5]diazocin-4(1H)-one] | 5 (5: >170% of control)
O=C1CCNc2ccc(Cl)cc2CN1C1CC1 [Compound 78, 8-chloro-5-cyclopropyl-2,3,5,6-tetrahydrobenzo[b][1,5]diazocin-4(1H)-one] | 3 (3: 120-140% of control)
O=C1CCN(C[C@@H](O)COCc2ccccc2)c2ccc(Cl)cc2CN1C1CC1 [Compound 79, (R)-1-(3-(benzyloxy)-2-hydroxypropyl)-8-chloro-5-cyclopropyl-2,3,5,6-tetrahydrobenzo[b][1,5]diazocin-4(1H)-one] | 1 (1: 90-110% of control)
O=C1CCNc2ccc3c(c2CN1C1CC1)OCCO3 [Compound 80, 11-cyclopropyl-2,3,8,9,11,12-hexahydro[1,4]dioxino[2,3-h][1,5]benzodiazocin-10(7H)-one] | 3 (3: 120-140% of control)
O=C1CCN(CC(O)COc2ccccc2)c2ccc(Cl)cc2CN1C1CC1 (stereo not shown) [Compound 81, 8-chloro-5-cyclopropyl-1-(2-hydroxy-3-phenoxypropyl)-2,3,5,6-tetrahydrobenzo[b][1,5]diazocin-4(1H)-one] | 1 (1: 90-110% of control)
O=C(CN1CCC(=O)N(C2CC2)Cc2cc(Cl)ccc21)c1ccc(Cl)cc1 [Compound 82, 8-chloro-1-(2-(4-chlorophenyl)-2-oxoethyl)-5-cyclopropyl-2,3,5,6-tetrahydrobenzo[b][1,5]diazocin-4(1H)-one] | 1 (1: 90-110% of control)
O=C(CN1CCC(=O)N(C2CC2)Cc2cc(Cl)ccc21)c1cccc(F)c1 [Compound 83, 8-chloro-5-cyclopropyl-1-(2-(3-fluorophenyl)-2-oxoethyl)-2,3,5,6-tetrahydrobenzo[b][1,5]diazocin-4(1H)-one] | 1 (1: 90-110% of control)
COc1ccc2c(c1)CN(C1CC1)C(=O)CCN2C(=O)c1ccno1 [Compound 84, 5-cyclopropyl-1-(isoxazole-5-carbonyl)-8-methoxy-2,3,5,6-tetrahydrobenzo[b][1,5]diazocin-4(1H)-one] | 1 (1: 90-110% of control)
O=C1CCN(CC(O)c2ccc(Cl)cc2)c2ccc(Cl)cc2CN1C1CC1 (stereo not shown) [Compound 85, 8-chloro-1-(2-(4-chlorophenyl)-2-hydroxyethyl)-5-cyclopropyl-2,3,5,6-tetrahydrobenzo[b][1,5]diazocin-4(1H)-one] | 1 (1: 90-110% of control)
O=C1CCN(CC(O)c2cccc(F)c2)c2ccc(Cl)cc2CN1C1CC1 (stereo not shown) [Compound 86, 8-chloro-5-cyclopropyl-1-(2-(3-fluorophenyl)-2-hydroxyethyl)-2,3,5,6-tetrahydrobenzo[b][1,5]diazocin-4(1H)-one] | 2 (2: 110-120% of control)
O=C1CCN(C[C@@H](O)COCc2ccccc2)c2ccc3c(c2CN1C1CC1)OCCO3 [Compound 88, 7-[(2R)-3-(benzyloxy)-2-hydroxypropyl]-11-cyclopropyl-2,3,8,9,11,12-hexahydro[1,4]dioxino[2,3-h][1,5]benzodiazocin-10(7H)-one] | 1 (1: 90-110% of control)
COc1ccc2c(c1)CN(C1CC1)C(=O)CCN2C[C@@H](O)COc1ccc(Cl)cc1 [Compound 89, (R)-1-(3-(4-chlorophenoxy)-2-hydroxypropyl)-5-cyclopropyl-8-methoxy-2,3,5,6-tetrahydrobenzo[b][1,5]diazocin-4(1H)-one] | 1 (1: 90-110% of control)
